Laboratory results: patent publication US7183075B2, “Purified and isolated potassium-chloride cotransporter nucleic acids and polypeptides and therapeutic and screening methods using same” (Vanderbilt University, priority 2000, dated 2007)
Where two headings read alike, the source gives them in different places.

Target: T1, xKCC (Xenopus laevis, UniProt A0A1L8HZL0)
T1 sequence (A0A1L8HZL0 1-1133): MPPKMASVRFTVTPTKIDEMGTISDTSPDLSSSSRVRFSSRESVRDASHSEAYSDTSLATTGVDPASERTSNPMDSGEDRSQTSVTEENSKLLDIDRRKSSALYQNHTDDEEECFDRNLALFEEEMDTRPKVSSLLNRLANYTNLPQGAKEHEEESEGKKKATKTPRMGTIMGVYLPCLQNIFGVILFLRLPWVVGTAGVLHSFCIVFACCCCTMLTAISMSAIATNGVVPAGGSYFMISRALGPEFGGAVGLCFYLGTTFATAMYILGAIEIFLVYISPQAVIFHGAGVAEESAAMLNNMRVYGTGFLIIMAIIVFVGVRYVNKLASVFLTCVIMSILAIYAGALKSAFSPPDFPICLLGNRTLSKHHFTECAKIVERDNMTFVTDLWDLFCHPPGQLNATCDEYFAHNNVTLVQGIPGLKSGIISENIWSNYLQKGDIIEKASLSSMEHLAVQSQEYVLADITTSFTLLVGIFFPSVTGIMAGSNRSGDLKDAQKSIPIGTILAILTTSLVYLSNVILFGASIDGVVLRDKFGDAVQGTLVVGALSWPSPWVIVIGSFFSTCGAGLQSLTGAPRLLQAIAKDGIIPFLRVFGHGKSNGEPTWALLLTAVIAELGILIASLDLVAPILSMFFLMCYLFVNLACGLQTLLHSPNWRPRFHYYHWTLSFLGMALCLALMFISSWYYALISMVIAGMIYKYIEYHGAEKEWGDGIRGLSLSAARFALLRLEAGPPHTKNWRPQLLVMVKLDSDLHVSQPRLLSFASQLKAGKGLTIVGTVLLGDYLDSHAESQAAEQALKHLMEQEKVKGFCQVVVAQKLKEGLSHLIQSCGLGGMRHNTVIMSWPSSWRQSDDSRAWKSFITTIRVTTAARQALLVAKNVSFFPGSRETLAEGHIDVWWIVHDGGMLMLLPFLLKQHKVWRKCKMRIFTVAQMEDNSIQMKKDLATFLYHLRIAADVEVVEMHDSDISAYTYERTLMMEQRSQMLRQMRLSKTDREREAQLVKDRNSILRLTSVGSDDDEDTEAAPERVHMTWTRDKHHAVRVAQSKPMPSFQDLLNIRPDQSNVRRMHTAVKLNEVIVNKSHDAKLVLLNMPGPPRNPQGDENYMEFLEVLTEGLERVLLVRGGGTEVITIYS
Experiment: 86Rb+ uptake by the endogenous K+-Cl- cotransporter of water-injected Xenopus oocytes
Type: cell-based
Settings: for Km: xKCC
Method: Oocytes were surgically collected from anesthetized female Xenopus adults under 0.17% tricaine and incubated for 1 hour with vigorous shaking in frog Ringer ND96 (96 mM sodium chloride, 2 mM potassium chloride, 1.8 mM calcium chloride, 1.0 mM magnesium chloride, and 5 mM Hepes/Tris, pH 7.4) in the presence of 2 mg/ml collagenase B. Oocytes were then washed four times in ND96, manually defolliculated, and incubated overnight in ND96 at 18° C. On the next day, defolliculated stage V–VI oocytes were injected with 50 nl of water or a solution containing cRNA at a concentration of 0.25–0.5 μg/μl (25 ng/oocyte). Oocytes were incubated at 17–18° C. in ND96 (96 mM sodium chloride, 2 mM potassium chloride, 1.8 mM calcium chloride, 1.0 mM magnesium chloride, and 5 mM Hepes/Tris, pH 7.4), supplemented with 2.5 mM sodium pyruvate and 5 mg/100 ml gentamicin, for 3–4 days. The incubation medium was changed every 24 hours. On the day of the experiment, oocytes were switched to Cl^−-free ND96 (96 mM Na^+ Na^+ isethionate, 2 mM K^+ gluconate, 6 mM Ca^2+ gluconate, 1 mM Mg^2+ gluconate, 5 mM Hepes, 2.5 mM sodium pyruvate, 5 mg/100 ml gentamicin, pH 7.4) for 2 hours prior to the uptake assay.
K^+—Cl^− cotransport was assessed by measuring tracer ^86Rb^+ uptake (NEN® Life Science Products of Boston, Mass.) in experimental groups of at least 15 oocytes. Since both KCC4 and KCC1 display minimal activity under isotonic conditions ^86Rb^+ uptake was generally assessed in oocytes swollen by a 30-minute incubation period in a hypotonic K^+ and Cl^−-free medium (50 mM N-methyl-D-glucamine (NMDG) gluconate, 4.6 mM Ca^2+ gluconate, 1.0 mM Mg^2+ gluconate, 5 mM Hepes, pH 7.4) with 1 mM ouabain, followed by a 60-minute uptake period in a hypotonic Na^+-free medium with variable K^+—Cl^− content. […] All uptake solutions also contained 1.8 mM CaCl2, 1 mM MgCl2, 5 mM Hepes, pH 7.4, and were supplemented with 1 mM ouabain and […] ^86Rb^+. […]
All uptake assays were performed at 32° C. […] Oocytes were dissolved in 10% SDS, and tracer activity was determined for each oocyte by β-scintillation counting.

`[K+]` [Potassium] gave a Km (read-out: Potassium Km) of 27.7 mM.

`Cl` [Chloride] was tested, and the Km (read-out: Chloride Km) was 15.4 mM.

With `CCN1C(=O)C=CC1=O` [NEM, N-ethylmaleimide] the “86Rb+ uptake due to endogenous oocyte K+-Cl- cotransporter” value (NEM, H2O-injected oocytes, both isotonic and hypotonic) was “significantly increased”.
